Source: patent US20250154202A1, “CYCLIC EPITOPE TAGS” (BIONTECH SE, priority 2022, published 2025)
Bridge positions count the residues as written; N and C are the ends. Square brackets hold non-standard residues; d marks the D form. Peptide text beside a SMILES is read from it.

What was measured:
[1] = target: NbALFA; assay: SPR measurements of NbALFA binding (Biacore T200, multi cycle kinetics, 1:1 binding model); details: for Kd / ka / kd: 25° C., HBS-EP+ buffer, biotinylated NbALFA captured
Description: Affinity measurements were performed using a Biacore T200 (GE Healthcare, Biacore T200 control Software 3.2). […] A freshly docked Biotin CAPture chip was rehydrated overnight in the instrument (standby mode). […] The immobilization of the Nanobody was done for 180 s at 10 μL/min on FC2 followed by quenching of unbound streptavidin by 0.1 mM biocytin for 60 s and 30 μL/min on both flow cells. […] After each cycle, the surface was regenerated for 120 s with 10 μL/min using regeneration solution. All measurements were performed at 25° C. using HBS-EP+ buffer (Cytiva Europe, Cat. no BR100669). The control responses from FC1 were subtracted by the sample measurement in FC2 (FC2−FC1) followed by subtraction of the 0 nM blank injection. Resulting binding curves of this multi cycle kinetic experiment were fitted using the Biacore T200 Evaluation Software 3.2 and a 1:1 binding model.

[2] = Plasma stability, human plasma; details: for remaining at 1 h, 10 µM / remaining at 3 h, 10 µM / remaining at 6 h, 10 µM / half-life: human; for remaining at 1 h, 10 µM / remaining at 3 h, 10 µM / remaining at 6 h, 10 µM: human Li-heparin plasma; for half-life: plasma
[3] = Plasma stability, mouse plasma; details: for remaining at 1 h, 10 µM / remaining at 3 h, 10 µM / remaining at 6 h, 10 µM: Balb C, Li-heparin plasma; for remaining at 1 h, 10 µM / remaining at 3 h, 10 µM / remaining at 6 h, 10 µM / half-life: mouse; for Conc. (% of T0) / Mean (compound concentration) / Tube 2 (compound concentration) / Tube 1 (compound concentration) / half-life: mouse plasma, 37° C.; for half-life: plasma
[4] = human plasma, 37° C., timepoint 0 h
[5] = human plasma, 37° C., timepoint 0 h, calibration range 0.1 to 10 μM
[6] = human plasma, 37° C., timepoint 1 h
[7] = human plasma, 37° C., timepoint 3 h
[8] = human plasma, 37° C., timepoint 6 h
[9] = Flag (half-life, assay exceeded), human plasma, 37° C.
[10] = Half-life time, human plasma, 37° C., incubation 24 h (triplicates) or 6 h (duplicates)
[11] = timepoint 0 h, calibration range 0.1 to 10 μM
[12] = Flag (half-life, assay exceeded)
[13] = Half-life time, incubation 24 h (triplicates) or 6 h (duplicates)

SMILES	Kd [1] [nM]	ka [1] [M⁻¹ s⁻¹]	kd [1] [s⁻¹]	half-life [2, 9] [h]	half-life [2, 10] [h]	remaining at 1 h, 10 µM [3] [%]	remaining at 3 h, 10 µM [3] [%]	remaining at 6 h, 10 µM [3] [%]	Conc. (% of T0) ([3]; timepoint 0 h)	Mean (compound concentration) ([3]; timepoint 0 h)	Tube 2 (compound concentration) ([3]; timepoint 0 h)	Tube 1 (compound concentration) [3, 11] [x]	Mean (compound concentration) ([3]; timepoint 1 h)	Tube 1 (compound concentration) ([3]; timepoint 1 h) [x]	Tube 2 (compound concentration) ([3]; timepoint 1 h)	Mean (compound concentration) ([3]; timepoint 3 h)	Tube 1 (compound concentration) ([3]; timepoint 3 h) [x]	Tube 2 (compound concentration) ([3]; timepoint 3 h)	Mean (compound concentration) ([3]; timepoint 6 h)	Tube 1 (compound concentration) ([3]; timepoint 6 h) [x]	also measured
CC(=O)N1CCC[C@H]1C(=O)N[C@@H](CO)C(=O)N[C@@H](CCCNC(=N)N)C(=O)N[C@@H](CC(C)C)C(=O)N[C@@H](CCC(=O)O)C(=O)N[C@H]1CCCCNC(=O)CC[C@@H](C(=O)N[C@@H](CCCNC(=N)N)C(=O)N[C@@H](CC(C)C)C(=O)N[C@H](C(=O)N[C@@H](CCC(=O)O)C(N)=O)[C@@H](C)O)NC(=O)[C@H](CCCNC(=N)N)NC(=O)[C@H](CC(C)C)NC(=O)[C@H](CCC(=O)O)NC1=O [SD15805, Ac-Pro-Ser-Arg-Leu-Glu-(cyclo6)Lys-Glu-Leu-Arg-(cyclo10)Glu-Arg-Leu-Thr-Glu-NH2] (Ac-PSRLEKELRERLTE-NH2; lactam 6-10)	0.103	9.33e+06	0.000964	> 6	13.8	82.1	78.3	53.8	100.0 % of T0	2.697	2.811	2.583	2.213	2.223	2.203	2.112	2.125	2.099	1.450	1.429	Conc. (% of T0) [2, 4]: 100.0 % of T0; Mean (compound concentration) [2, 4]: 2.836; Tube 2 (compound concentration) [2, 4]: 2.777; Tube 1 (compound concentration) [2, 5]: 2.894 x; Mean (compound concentration) [2, 6]: 2.507; Tube 1 (compound concentration) [2, 6]: 2.529 x; Tube 2 (compound concentration) [2, 6]: 2.485; Mean (compound concentration) [2, 7]: 2.356; Tube 1 (compound concentration) [2, 7]: 2.408 x; Tube 2 (compound concentration) [2, 7]: 2.304; Mean (compound concentration) [2, 8]: 2.046; Tube 1 (compound concentration) [2, 8]: 2.046 x; Tube 2 (compound concentration) [2, 8]: 2.045; remaining at 1 h, 10 µM [2]: 88.4%; remaining at 3 h, 10 µM [2]: 83.1%; remaining at 6 h, 10 µM [2]: 72.1%; Tube 2 (compound concentration) ([3]; timepoint 6 h): 1.471; half-life [3, 12]: > 6 h; half-life [3, 13]: 7.29 h
CC(=O)N1CCC[C@H]1C(=O)N[C@@H](CO)C(=O)N[C@@H](CCCNC(=N)N)C(=O)N[C@@H](CC(C)C)C(=O)N[C@H]1CCC(=O)NCCCC[C@@H](C(=O)N[C@@H](CCCNC(=N)N)C(=O)N[C@@H](CCCNC(=N)N)C(=O)N[C@@H](CC(C)C)C(=O)N[C@H](C(=O)N[C@@H](CCC(=O)O)C(N)=O)[C@@H](C)O)NC(=O)[C@H](CC(C)C)NC(=O)[C@H](CCC(=O)O)NC(=O)[C@H](CCC(=O)O)NC1=O [SD15806, Ac-Pro-Ser-Arg-Leu-(cyclo5)Glu-Glu-Glu-Leu-(cyclo9)Lys-Arg-Arg-Leu-Thr-Glu-NH2] (Ac-PSRLEEELKRRLTE-NH2; lactam 5-9)	1.43	3.44e+09	4.94	> 6	20.8	88.4	83.1	73.7	100.0 % of T0	3.073	3.145	3.000	2.717	2.773	2.661	2.553	2.604	2.501	2.265	2.258	Conc. (% of T0) [2, 4]: 100.0 % of T0; Mean (compound concentration) [2, 4]: 3.040; Tube 2 (compound concentration) [2, 4]: 2.965; Tube 1 (compound concentration) [2, 5]: 3.114 x; Mean (compound concentration) [2, 6]: 2.859; Tube 1 (compound concentration) [2, 6]: 2.843 x; Tube 2 (compound concentration) [2, 6]: 2.874; Mean (compound concentration) [2, 7]: 2.629; Tube 1 (compound concentration) [2, 7]: 2.772 x; Tube 2 (compound concentration) [2, 7]: 2.486; Mean (compound concentration) [2, 8]: 2.476; Tube 1 (compound concentration) [2, 8]: 2.534 x; Tube 2 (compound concentration) [2, 8]: 2.417; remaining at 1 h, 10 µM ([2]; Conc. (% of T0), human plasma, 37° C., timepoint 1 h): 94%; remaining at 3 h, 10 µM ([2]; Conc. (% of T0), human plasma, 37° C., timepoint 3 h): 86.5%; remaining at 6 h, 10 µM ([2]; Conc. (% of T0), human plasma, 37° C., timepoint 6 h): 81.4%; Tube 2 (compound concentration) ([3]; timepoint 6 h): 2.272; half-life [3, 12]: > 6 h; half-life [3, 13]: 14.9 h
CC(=O)N1CCC[C@H]1C(=O)N[C@@H](CO)C(=O)N[C@@H](CCCNC(=N)N)C(=O)N[C@@H](CC(C)C)C(=O)N[C@@H](CCC(=O)O)C(=O)N[C@H]1CCC(=O)NCCCC[C@H](C(=O)N[C@@H](CCCNC(=N)N)C(=O)N[C@@H](CC(C)C)C(=O)N[C@H](C(=O)N[C@@H](CCC(=O)O)C(N)=O)[C@@H](C)O)NC(=O)[C@H](CCCNC(=N)N)NC(=O)[C@H](CC(C)C)NC(=O)[C@H](CCC(=O)O)NC1=O [SD15808, Ac-Pro-Ser-Arg-Leu-Glu-(cyclo6)Glu-Glu-Leu-Arg-(cyclo10)dLys-Arg-Leu-Thr-Glu-NH2] (Ac-PSRLEEELR[dK]RLTE-NH2; lactam 6-10)	0.038	1.35e+07	0.000513	> 6	16.1	86.9	73.7	61.1	100.0 % of T0	3.198	3.173	3.223	2.780	2.668	2.892	2.357	2.398	2.316	1.955	2.018	binding with respect to NbALFA ([1]; in words): very good binding; Tube 2 (compound concentration) ([3]; timepoint 6 h): 1.892; half-life [3, 12]: > 6 h; half-life [3, 13]: 8.74 h
